Read-outs that look alike come from different tables or passages of the source. Blank lines part the entries; values can stand above or below the compound they belong to.
How the values were obtained:
[1] = target: T1, NK1 receptors in human brain (Homo sapiens, UniProt P25103); test: Netupitant PET receptor occupancy study (11C-GR205171 tracer); format: in vivo; settings: for mean NK1-RO: 96 hours post dose
T1 construct: 6 healthy male volunteers (2 per dose level) receiving single doses of netupitant; from tissue; host or cells: brain of healthy male human volunteers, in vivo
Experimental: This was a randomized, open-label, positron emission tomography (PET) study using 11C-GR205171 as tracer in 6 healthy male volunteers (2 per dose level) receiving single doses of netupitant (100, 300 or 450 mg) to investigate the degree of occupancy of NK1 receptors in human brain, and to determine the relationship between plasma concentration of netupitant and NK1 receptor occupancy (RO).

[2] = Pharmacokinetics of combined dosage form: randomized, open, 3-way crossover study; format: in vivo; settings: human, fasting; for half-life / Tmax: median (range)
Experimental: The effects of palonosetron on the pharmacokinetics (PK) of netupitant and the effects of netupitant on the PK of palonosetron were examined in healthy volunteers. A randomized, open, 3-way crossover study was conducted. Each subject participated in 3 treatment periods, each lasting approximately 12 days (Day −1 to Day 11). The treatment periods were separated by wash-out periods of no less than 14 days (between Day 1 of any 2 consecutive treatment periods). Treatment A: oral netupitant 450 mg. administered as single dose of three 150 mg. capsules. Treatment B: oral palonosetron 0.75 mg. and oral netupitant 450 mg. administered simultaneously as three capsules of 150 mg. netupitant followed by 1 capsule of 0.75 mg. palonosetron. Treatment C: oral palonosetron 0.75 mg. administered as single dose as one 0.75 mg. capsule. Doses were administered under fasting conditions. Subjects fasted over-night for approximately 10 hours. Water, however, was permitted up to 1 hour pre-dose. Food intake was permitted 4 hours post-dose, and water was allowed ad libitum 1 hour post-dose. Doses were administered with the subject in an upright position. The subjects remained in an upright position for 4 hours post-dose. The capsules were swallowed whole with 250 mL of room-temperature tap water. Repeated PK blood sampling (for netupitant and/or palonosetron) was performed. The primary PK variables assessed for netupitant and palonosetron were the maximum plasma concentration observed (Cmax), the area under the plasma concentration versus time curve from time zero to the last quantifiable sampling time point (t) (AUC0-t), and the area under the plasma concentration versus time curve from time zero to infinity (AUC0-inf). The secondary PK variables assessed were the terminal elimination half-life (t1/2, z), and the time at which the maximum plasma concentration was observed (tmax). Results are depicted in below Tables 3 and 4, as well as FIGS. 2 and 3.

[3] = test system: highly emetogenic chemotherapy (HEC)-induced nausea and vomiting; test: Phase 2 clinical efficacy study, netupitant + palonosetron + dexamethasone; format: in vivo, human; parameters: Total Control, Overall: percent of patients / Total Control, Acute: percent of patients / Total Control, Delayed: percent of patients / Complete Protection, Overall: percent of patients / Complete Protection, Acute: percent of patients / Complete Protection, Delayed: percent of patients: concentration or dose not given beside the values; settings: MFAS
Excerpt: A phase 2 trial evaluated three single doses of netupitant combined with palonosetron and dexamethasone compared to palonosetron alone and dexamethasone to obtain dose ranging information for netupitant used with oral palonosetron in the CINV patient population.
The objective of the study was to compare the efficacy and safety of three single oral doses of netupitant combined with oral palonosetron and given with dexamethasone, versus oral palonosetron-alone given with dexamethasone (without netupitant) for the prevention of highly emetogenic chemotherapy (HEC)-induced nausea and vomiting. The FDA-approved oral aprepitant regimen given with IV ondansetron and dexamethasone was included in the study as an active comparator for exploratory purposes. The FDA-approved oral palonosetron 0.5 mg. dose was used in each applicable treatment group in this study.
This was a multicenter, randomized, double-blind, double-dummy, parallel group, stratified study. Eligible patients were randomized (stratified by gender) to one of the following treatment groups: • Group 1—0.5 mg. oral palonosetron on Day 1 (with an oral dexamethasone standard regimen: 20 mg. on Day 1 and 8 mg. BID from Day 2 through Day 4) • Group 2—100 mg. oral netupitant plus 0.5 mg. oral palonosetron on Day 1 (with an oral dexamethasone adjusted regimen*: 12 mg. on Day 1 and 8 mg. daily from Day 2 through Day 4) • Group 3—200 mg. oral netupitant plus 0.5 mg. oral palonosetron on Day 1 (with an oral dexamethasone adjusted regimen*: 12 mg. on Day 1 and 8 mg. daily from Day 2 to Day 4) • Group 4—300 mg. oral netupitant plus 0.5 mg. oral palonosetron on Day 1 (with dexamethasone adjusted regimen*: 12 mg. on Day 1 and 8 mg. daily from Day 2 to Day 4) • Group 5—125 mg. oral aprepitant plus IV ondansetron 32 mg. (both on Day 1) then 80 mg. oral aprepitant on Day 2 and Day 3, (all with an oral dexamethasone adjusted regimen: 12 mg. on Day 1 and 8 mg. daily from Day 2 through Day 4)
The primary efficacy endpoint was the complete response rate (defined as no emetic episodes, no rescue medication) within 120 hours after the start of the highly emetogenic chemotherapy administration. Secondary efficacy endpoints were: • Complete response for the 0-24 hour interval (acute phase); and for the 25-120 hour interval (delayed phase); • Complete protection (defined as no emesis, no rescue therapy, no significant nausea); Total control (defined as no emesis, no rescue therapy and no nausea); No nausea (maximum VAS<5 mm); No significant nausea (maximum VAS<25 mm); No rescue medication; No emesis. These endpoints were evaluated for the 0-120 hour interval (overall), acute and delayed phase. • Time to first emetic episode, Time to first rescue medication, Time to treatment failure (based on time to the first emetic episode or time to the first rescue medication, whichever occurs first); • Severity of nausea for the overall, acute and delayed phase; ● Patient global satisfaction with anti-emetic therapy by means of VAS for each 24 hour interval.

[4] = Netupitant + dexamethasone drug interaction study; format: in vivo, human
Experimental: The effect of netupitant on orally administered dexamethasone pharmacokinetics was evaluated in this study. This was a randomized, open, 3-period crossover study utilizing an incomplete Latin Square design where subjects were given dexamethasone alone, or oral Netupitant 100 mg., 300 mg. or 450 mg. each given with dexamethasone. Netupitant was given orally on Day 1 only. The dexamethasone regimen for each treatment was 20 mg. orally Day 1, followed by 8 mg. orally every 12 hours from Day 2 through Day 4. Nineteen subjects (12 male and 7 female) completed the study (i.e., all 3 treatment periods).

[5] = co-administration of 100 mg netupitant (oral, Day 1) vs dexamethasone alone
[6] = co-administration of 300 mg netupitant (oral, Day 1) vs dexamethasone alone
[7] = co-administration of 450 mg netupitant (oral, Day 1) vs dexamethasone alone
[8] = 0-24 h, Group 1 (Palo alone) / Group 5 (Aprepitant Regimen)
[9] = 0-120 h, Group 1 (Palo alone) / Group 5 (Aprepitant Regimen)
[10] = 25-120 h, Group 1 (Palo alone) / Group 5 (Aprepitant Regimen)
[11] = HEC (cisplatin) patients, Group 1 (Palo alone) / Group 5 (Aprepitant Regimen)

T1 sequence (P25103 whole entry): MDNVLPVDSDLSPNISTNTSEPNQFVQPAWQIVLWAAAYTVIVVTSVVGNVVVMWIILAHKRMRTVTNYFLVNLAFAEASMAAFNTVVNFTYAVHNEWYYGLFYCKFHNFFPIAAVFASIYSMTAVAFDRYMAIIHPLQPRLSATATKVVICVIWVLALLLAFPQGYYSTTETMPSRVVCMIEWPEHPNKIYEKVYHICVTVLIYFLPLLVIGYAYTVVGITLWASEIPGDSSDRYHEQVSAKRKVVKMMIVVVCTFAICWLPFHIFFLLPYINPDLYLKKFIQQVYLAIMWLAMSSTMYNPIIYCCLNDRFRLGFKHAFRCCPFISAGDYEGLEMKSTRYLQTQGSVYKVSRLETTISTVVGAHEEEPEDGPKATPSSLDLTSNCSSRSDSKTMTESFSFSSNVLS

mean NK1-RO ([1]; 100 mg dose group, 4 of 6 regions): over 70%
mean NK1-RO ([1]; 450 mg dose group, 5 of 6 regions): ≥ 80%
NK1 receptor occupancy (NK1-RO) ([1]; 6 hours post dose, striatum, occipital cortex, frontal cortex and anterior cingulate, reached in 3 of 6 subjects (1 at 300 mg, 2 at 450 mg single oral dose)): ≥ 90%
Cmax ([2]; plasma netupitant, oral netupitant 450 mg single dose, mean (SD)): 0.65 µg/mL
AUC(0-t) ([2]; plasma netupitant, oral netupitant 450 mg single dose, mean (SD), read-out: Netupitant AUC0-t): 22.8 µg·h/mL
AUC ([2]; plasma netupitant, oral netupitant 450 mg single dose, mean (SD), read-out: Netupitant AUCo-inf): 25.9 µg·h/mL
half-life ([2]; plasma netupitant, oral netupitant 450 mg single dose, read-out: Netupitant t1/2, z (converted)): 71.8 h
Tmax ([2]; plasma netupitant, oral netupitant 450 mg single dose, read-out: Netupitant tmax): 4.5 h
SMILES: Cc1ccccc1-c1cc(N2CCN(C)CC2)ncc1N(C)C(=O)C(C)(C)c1cc(C(F)(F)F)cc(C(F)(F)F)c1 [Netupitant, 2-[3,5-bis(trifluoromethyl)phenyl]-N,2-dimethyl-N-[4-(2-methylphenyl)-6-(4-methylpiperazin-1-yl)pyridin-3-yl]propanamide]
No Emesis, Overall: percent of patients ([3]; 0-120 h, netupitant 100 mg + palonosetron 0.5 mg oral Day 1, with dexamethasone): 87.4%
No Emesis, Overall: percent of patients ([3]; 0-120 h, netupitant 200 mg + palonosetron 0.5 mg oral Day 1, with dexamethasone): 87.6%
No Emesis, Overall: percent of patients ([3]; 0-120 h, netupitant 300 mg + palonosetron 0.5 mg oral Day 1, with dexamethasone): 91.1%
CR, Overall Phase, 0-120 h: Percent of Patients ([3]; HEC (cisplatin) patients, netupitant 100 mg + palonosetron 0.5 mg oral Day 1, with dexamethasone): 87.4%
CR, Overall Phase, 0-120 h: Percent of Patients ([3]; HEC (cisplatin) patients, netupitant 200 mg + palonosetron 0.5 mg oral Day 1, with dexamethasone): 87.6%
CR, Overall Phase, 0-120 h: Percent of Patients ([3]; HEC (cisplatin) patients, netupitant 300 mg + palonosetron 0.5 mg oral Day 1, with dexamethasone): 89.6%

Dexamethasone Cmin on Days 2-4, fold increase ([4]; co-administration of 100 mg netupitant): approximately 2.8 fold
AUC0-24 (Day 1) of dexamethasone, fold increase [4, 5]: 1.5 fold
AUC24-36 (Day 2) of dexamethasone, fold increase [4, 5]: 2.1 fold
AUC84-108 and AUC84-inf (Day 4) of dexamethasone, fold increase [4, 5]: 1.7 fold
Dexamethasone Cmin on Days 2-4, fold increase ([4]; co-administration of 300 mg netupitant): ~4.3 fold
AUC0-24 (Day 1) of dexamethasone, fold increase [4, 6]: 1.7 fold
AUC24-36 (Day 2) of dexamethasone, fold increase [4, 6]: 2.4 fold
AUC84-108 and AUC84-inf (Day 4) of dexamethasone, fold increase [4, 6]: 2.4 fold
Dexamethasone Cmin on Days 2-4, fold increase ([4]; co-administration of 450 mg netupitant): ~4.6 fold
AUC0-24 (Day 1) of dexamethasone, fold increase [4, 7]: 1.8 fold
AUC24-36 (Day 2) of dexamethasone, fold increase [4, 7]: 2.6 fold
AUC84-108 and AUC84-inf (Day 4) of dexamethasone, fold increase [4, 7]: 2.7 fold
Dexamethasone Cmax on Day 1, fold increase ([4]; co-administration with 100 mg netupitant): 1.1 fold
Dexamethasone Cmax on Day 1, fold increase ([4]; co-administration with 300 mg netupitant): 1.1 fold
Dexamethasone Cmax on Day 1, fold increase ([4]; co-administration with 450 mg netupitant): 1.2 fold
Dexamethasone Cmax on Day 2 and Day 4, fold increase ([4]; subjects administered netupitant (100, 300 or 450 mg)): approximately 1.7 fold
SMILES: C[C@@H]1C[C@H]2[C@@H]3CCC4=CC(=O)C=C[C@]4(C)[C@@]3(F)[C@@H](O)C[C@]2(C)[C@@]1(O)C(=O)CO [dexamethasone]

half-life ([2]; plasma palonosetron, oral palonosetron 0.75 mg single dose, read-out: Palonosetron t1/2, z (converted)): 34.7 h
Tmax ([2]; plasma palonosetron, oral palonosetron 0.75 mg single dose, read-out: Palonosetron tmax): 5.02 h
SMILES: Cl.O=C1c2cccc3c2[C@H](CCC3)CN1[C@@H]1CN2CCC1CC2 [Palonosetron, (3aS)-2-[(S)-1-Azabicyclo[2.2.2]oct-3-yl]-2,3,3a,4,5,6-hexahydro-1-oxo-1Hberiz[de]isoquinoline hydrochloride]
Complete Protection, Acute: percent of patients [3, 8]: 87.5%
No Emesis, Acute: percent of patients [3, 8]: 89.7%
No Rescue, Acute: percent of patients [3, 8]: 97.8%
Total Control, Acute: percent of patients [3, 8]: 71.3%
No Emesis, Overall: percent of patients [3, 9]: 76.5%
No Rescue, Overall: percent of patients [3, 9]: 95.6%
Complete Protection, Delayed: percent of patients [3, 10]: 73.5%
No Emesis, Delayed: percent of patients [3, 10]: 80.1%
No Rescue, Delayed: percent of patients [3, 10]: 97.1%
Total Control, Delayed: percent of patients [3, 10]: 52.2%
CR, Acute Phase, −24 h: Percent of Patients [3, 11]: 89.7%
CR, Delayed Phase, 25-120 h: Percent of Patients [3, 11]: 80.1%
CR, Overall Phase, 0-120 h: Percent of Patients [3, 11]: 76.5%
No Nausea, Acute: percent of patients ([3]; maximum VAS<5 mm, 0-24 h, Group 1 (Palo alone) / Group 5 (Aprepitant Regimen)): 75.0%
No Nausea, Overall: percent of patients ([3]; maximum VAS<5 mm, 0-120 h, Group 1 (Palo alone) / Group 5 (Aprepitant Regimen)): 50.7%
No Nausea, Delayed: percent of patients ([3]; maximum VAS<5 mm, 25-120 h, Group 1 (Palo alone) / Group 5 (Aprepitant Regimen)): 53.7%
No Significant Nauea, Acute: percent of patients ([3]; maximum VAS<25 mm, 0-24 h, Group 1 (Palo alone) / Group 5 (Aprepitant Regimen)): 93.4%
No Significant Nauea, Overall: percent of patients ([3]; maximum VAS<25 mm, 0-120 h, Group 1 (Palo alone) / Group 5 (Aprepitant Regimen)): 79.4%
No Significant Nauea, Delayed: percent of patients ([3]; maximum VAS<25 mm, 25-120 h, Group 1 (Palo alone) / Group 5 (Aprepitant Regimen)): 80.9%
Total Control, Overall: percent of patients ([3]; no emesis, no rescue therapy and no nausea, 0-120 h, Group 1 (Palo alone) / Group 5 (Aprepitant Regimen)): 50.0%
Complete Protection, Overall: percent of patients ([3]; no emesis, no rescue therapy, no significant nausea, 0-120 h, Group 1 (Palo alone) / Group 5 (Aprepitant Regimen)): 69.9%

Source: patent US8951969B2, “Compositions and methods for treating centrally mediated nausea and vomiting” (Helsinn Healthcare S.A., priority 2009, dated 2015)
